This is an account of results in ChEMBL document CHEMBL1143505, “Synthesis and pharmacological investigation of novel 1-substituted-4-phenyl-1,2,4-triazolo[4,3-a]quinazolin-5(4H)-ones as a new class of H1-antihistaminic agents” (2005).

Assay [1] is filed under the species Cavia porcellus. The assay can be described thus: Percentage protection of guinea pigs from histamine induced bronchospasm by compound. Further details: concentration or dose not given beside the values.
For assay [2], the species on record is Cavia porcellus. The assay can be described thus: Percentage reduction central nervous system depression in guinea pig by compound.

Consider `Cc1nnc2n(-c3ccccc3)c(=O)c3ccccc3n12`, for which the Protection in the assay filed under Cavia porcellus [1] is 70.7%. Moreover, the Depression in the assay listed under Cavia porcellus [2] is 4.8%.

In turn, `O=C(O)COCCN1CCN(C(c2ccccc2)c2ccc(Cl)cc2)CC1` (centres undefined) [CETIRIZINE] had a Protection in the assay filed under Cavia porcellus [1] of 78.9%. In addition, the Depression in the assay listed under Cavia porcellus [2] worked out at 8.5%.

The molecule `CCc1nnc2n(-c3ccccc3)c(=O)c3ccccc3n12` had a Protection in the assay filed under Cavia porcellus [1] of 70%. In addition, the Depression in the assay listed under Cavia porcellus [2] was 5.3%.

In the case of `O=c1c2ccccc2n2cnnc2n1-c1ccccc1`, the Protection in the assay listed under Cavia porcellus [1] amounted to 69.9%. Moreover, the Depression in the assay filed under Cavia porcellus [2] is 4.2%.

`CN(C)CCC(c1ccc(Cl)cc1)c1ccccn1.O=C(O)/C=C\C(=O)O` (centres undefined) [CHLORPHENIRAMINE MALEATE] yielded a Protection in the assay filed under Cavia porcellus [1] of 71%. In addition, the Depression in the assay listed under Cavia porcellus [2] is 26%.

Regarding `CCCc1nnc2n(-c3ccccc3)c(=O)c3ccccc3n12`, the Protection in the assay filed under Cavia porcellus [1] was 69.2%. This molecule gave a Depression in the assay filed under Cavia porcellus [2] of 7.3%.

Consider `O=c1c2ccccc2n2c(CCl)nnc2n1-c1ccccc1`, for which the Protection in the assay listed under Cavia porcellus [1] came to 68.7%. In addition, the Depression in the assay listed under Cavia porcellus [2] was 3.7%.
